Experimental data published in ChEMBL document CHEMBL4725398 (Bioorg Med Chem, 2020).

Columns and labels:
NCI-H1975 [1] = assay: cells; details: Homo sapiens, NCI-H1975, 48 h
A-431 = assay: cells; details: Homo sapiens, A-431, 48 h
Description: Antiproliferation activity against human A431 cells assessed as reduction in cell viability incubated incubated for 48 hrs by MTT assay

[2] = target: Epidermal growth factor receptor (Homo sapiens, UniProt P00533); assay: Inhibition of wild type EGFR (unknown origin) in presence of ATP preincubated 5 mins measured for 30 mins by detection reagent based HTRF analysis
SW-620 = assay: cells; details: Homo sapiens, SW-620, 48 h
Description: Antiproliferation activity against EGFR-negative human SW620 cells assessed as reduction in cell viability incubated incubated for 48 hrs by MTT assay

[3] = target: Epidermal growth factor receptor (Homo sapiens, UniProt P00533, L858R/T790M); assay: Inhibition of recombinant human EGFR T790M/L858R mutant expressed in baculovirus insect cell expression system in presence of ATP preincubated 5 mins measured for 30 mins by detection reagent based HTRF analysis
Sequence of Epidermal growth factor receptor (Homo sapiens, UniProt P00533, L858R/T790M) (P00533 25-1210 T790M/L858R limits assumed): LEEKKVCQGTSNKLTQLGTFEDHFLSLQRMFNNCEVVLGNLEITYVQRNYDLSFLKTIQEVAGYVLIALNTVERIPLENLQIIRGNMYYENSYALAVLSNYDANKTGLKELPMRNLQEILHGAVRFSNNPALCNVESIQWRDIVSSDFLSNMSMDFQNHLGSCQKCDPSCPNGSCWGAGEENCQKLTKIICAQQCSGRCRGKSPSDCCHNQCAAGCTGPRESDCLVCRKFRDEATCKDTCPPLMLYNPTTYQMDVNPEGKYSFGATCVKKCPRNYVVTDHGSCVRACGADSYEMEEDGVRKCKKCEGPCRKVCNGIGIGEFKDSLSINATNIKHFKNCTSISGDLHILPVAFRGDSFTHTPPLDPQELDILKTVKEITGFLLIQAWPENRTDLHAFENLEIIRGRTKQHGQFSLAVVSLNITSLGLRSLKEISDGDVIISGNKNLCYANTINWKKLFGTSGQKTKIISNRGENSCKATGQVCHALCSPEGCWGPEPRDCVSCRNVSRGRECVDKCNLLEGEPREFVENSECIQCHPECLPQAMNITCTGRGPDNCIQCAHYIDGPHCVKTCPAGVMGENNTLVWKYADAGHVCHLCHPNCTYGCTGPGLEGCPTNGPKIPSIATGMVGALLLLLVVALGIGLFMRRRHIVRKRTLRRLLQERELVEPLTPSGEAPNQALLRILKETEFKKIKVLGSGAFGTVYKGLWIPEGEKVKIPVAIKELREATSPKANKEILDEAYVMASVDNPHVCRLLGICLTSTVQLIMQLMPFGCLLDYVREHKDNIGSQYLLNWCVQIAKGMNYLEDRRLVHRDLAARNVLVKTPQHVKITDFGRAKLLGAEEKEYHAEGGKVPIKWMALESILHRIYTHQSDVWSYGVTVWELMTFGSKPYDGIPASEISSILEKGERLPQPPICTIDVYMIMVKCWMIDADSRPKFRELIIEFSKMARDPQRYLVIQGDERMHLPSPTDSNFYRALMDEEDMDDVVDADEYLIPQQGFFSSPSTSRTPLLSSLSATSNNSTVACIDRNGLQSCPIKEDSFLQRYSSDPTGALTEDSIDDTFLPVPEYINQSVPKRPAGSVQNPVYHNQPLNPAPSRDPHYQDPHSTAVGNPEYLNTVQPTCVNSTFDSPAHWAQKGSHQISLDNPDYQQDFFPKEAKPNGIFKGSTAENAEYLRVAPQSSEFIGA

COS-7 = assay: Cytotoxicity against African green monkey COS7 cells assessed as decrease in cell viability incubated incubated for 48 hrs by MTT assay; assay type: cell-based; details: Chlorocebus aethiops, COS-7, 48 h
NCI-H1975 [4] = assay: Cell cycle arrest in human NCI-H1975 cells assessed as accumulation at G2 phase at 1 uM incubated for 24 hrs measured after 2 days by propidium iodide staining based flow cytometric analysis (reference value: 34.04 %); assay type: functional
NCI-H1975 [5] = assay: Cell cycle arrest in human NCI-H1975 cells assessed as diploid cell at 0.25 uM incubated for 24 hrs measured after 2 days by propidium iodide staining based flow cytometric analysis (reference value: 100 %); assay type: functional
NCI-H1975 [6] = assay: Cell cycle arrest in human NCI-H1975 cells assessed as accumulation at G2/G1 phase at 0.5 uM incubated for 24 hrs measured after 2 days by propidium iodide staining based flow cytometric analysis (reference value: 1.89 %); assay type: functional
NCI-H1975 [7] = assay: Cell cycle arrest in human NCI-H1975 cells assessed as accumulation at S phase at 0.5 uM incubated for 24 hrs measured after 2 days by propidium iodide staining based flow cytometric analysis (reference value: 24.04 %); assay type: functional
NCI-H1975 [8] = assay: Cell cycle arrest in human NCI-H1975 cells assessed as accumulation at G2 phase at 0.25 uM incubated for 24 hrs measured after 2 days by propidium iodide staining based flow cytometric analysis (reference value: 34.04 %); assay type: functional
NCI-H1975 [9] = assay: Cell cycle arrest in human NCI-H1975 cells assessed as accumulation at G1 phase at 0.5 uM incubated for 24 hrs measured after 2 days by propidium iodide staining based flow cytometric analysis (reference value: 41.92 %); assay type: functional
NCI-H1975 [10] = assay: Cell cycle arrest in human NCI-H1975 cells assessed as accumulation at G1 phase at 0.25 uM incubated for 24 hrs measured after 2 days by propidium iodide staining based flow cytometric analysis (reference value: 41.92 %); assay type: functional
NCI-H1975 [11] = assay: Cell cycle arrest in human NCI-H1975 cells assessed as accumulation at G2 phase at 0.5 uM incubated for 24 hrs measured after 2 days by propidium iodide staining based flow cytometric analysis (reference value: 34.04 %); assay type: functional
NCI-H1975 [12] = assay: Cell cycle arrest in human NCI-H1975 cells assessed as accumulation at G1 phase at 1 uM incubated for 24 hrs measured after 2 days by propidium iodide staining based flow cytometric analysis (reference value: 41.92 %); assay type: functional
NCI-H1975 [13] = assay: Cell cycle arrest in human NCI-H1975 cells assessed as accumulation at G2/G1 phase at 1 uM incubated for 24 hrs measured after 2 days by propidium iodide staining based flow cytometric analysis (reference value: 1.89 %); assay type: functional
NCI-H1975 [14] = assay: Cell cycle arrest in human NCI-H1975 cells assessed as diploid cell at 0.5 uM incubated for 24 hrs measured after 2 days by propidium iodide staining based flow cytometric analysis (reference value: 100 %); assay type: functional
NCI-H1975 [15] = assay: Cell cycle arrest in human NCI-H1975 cells assessed as accumulation at S phase at 0.25 uM incubated for 24 hrs measured after 2 days by propidium iodide staining based flow cytometric analysis (reference value: 24.04 %); assay type: functional
NCI-H1975 [16] = assay: Cell cycle arrest in human NCI-H1975 cells assessed as accumulation at G2/G1 phase at 0.25 uM incubated for 24 hrs measured after 2 days by propidium iodide staining based flow cytometric analysis (reference value: 1.89 %); assay type: functional
NCI-H1975 [17] = assay: Cell cycle arrest in human NCI-H1975 cells assessed as accumulation at S phase at 1 uM incubated for 24 hrs measured after 2 days by propidium iodide staining based flow cytometric analysis (reference value: 24.04 %); assay type: functional
NCI-H1975 [18] = assay: Cell cycle arrest in human NCI-H1975 cells assessed as decrease in accumulation at G2/M phase at 0.25 to 1 uM incubated for 24 hrs measured after 2 days by propidium iodide staining based flow cytometric analysis (reference value: 34.04%); assay type: functional; design: scale not given: the % may be the effect or the level left; details: dose microM 0.25-1
NCI-H1975 [19] = assay: Cell cycle arrest in human NCI-H1975 cells assessed as diploid cell at 1 uM incubated for 24 hrs measured after 2 days by propidium iodide staining based flow cytometric analysis (reference value: 100 %); assay type: functional
NCI-H1975 [20] = assay: Cell cycle arrest in human NCI-H1975 cells assessed as increase in accumulation at G0/G1 phase at 0.25 to 1 uM treated for 24 hrs measured after 2 days by propidium iodide staining based flow cytometric analysis (reference value: 41.92%); assay type: functional; details: dose microM 0.25-1

Sequence of Epidermal growth factor receptor (Homo sapiens, UniProt P00533) (P00533 whole entry): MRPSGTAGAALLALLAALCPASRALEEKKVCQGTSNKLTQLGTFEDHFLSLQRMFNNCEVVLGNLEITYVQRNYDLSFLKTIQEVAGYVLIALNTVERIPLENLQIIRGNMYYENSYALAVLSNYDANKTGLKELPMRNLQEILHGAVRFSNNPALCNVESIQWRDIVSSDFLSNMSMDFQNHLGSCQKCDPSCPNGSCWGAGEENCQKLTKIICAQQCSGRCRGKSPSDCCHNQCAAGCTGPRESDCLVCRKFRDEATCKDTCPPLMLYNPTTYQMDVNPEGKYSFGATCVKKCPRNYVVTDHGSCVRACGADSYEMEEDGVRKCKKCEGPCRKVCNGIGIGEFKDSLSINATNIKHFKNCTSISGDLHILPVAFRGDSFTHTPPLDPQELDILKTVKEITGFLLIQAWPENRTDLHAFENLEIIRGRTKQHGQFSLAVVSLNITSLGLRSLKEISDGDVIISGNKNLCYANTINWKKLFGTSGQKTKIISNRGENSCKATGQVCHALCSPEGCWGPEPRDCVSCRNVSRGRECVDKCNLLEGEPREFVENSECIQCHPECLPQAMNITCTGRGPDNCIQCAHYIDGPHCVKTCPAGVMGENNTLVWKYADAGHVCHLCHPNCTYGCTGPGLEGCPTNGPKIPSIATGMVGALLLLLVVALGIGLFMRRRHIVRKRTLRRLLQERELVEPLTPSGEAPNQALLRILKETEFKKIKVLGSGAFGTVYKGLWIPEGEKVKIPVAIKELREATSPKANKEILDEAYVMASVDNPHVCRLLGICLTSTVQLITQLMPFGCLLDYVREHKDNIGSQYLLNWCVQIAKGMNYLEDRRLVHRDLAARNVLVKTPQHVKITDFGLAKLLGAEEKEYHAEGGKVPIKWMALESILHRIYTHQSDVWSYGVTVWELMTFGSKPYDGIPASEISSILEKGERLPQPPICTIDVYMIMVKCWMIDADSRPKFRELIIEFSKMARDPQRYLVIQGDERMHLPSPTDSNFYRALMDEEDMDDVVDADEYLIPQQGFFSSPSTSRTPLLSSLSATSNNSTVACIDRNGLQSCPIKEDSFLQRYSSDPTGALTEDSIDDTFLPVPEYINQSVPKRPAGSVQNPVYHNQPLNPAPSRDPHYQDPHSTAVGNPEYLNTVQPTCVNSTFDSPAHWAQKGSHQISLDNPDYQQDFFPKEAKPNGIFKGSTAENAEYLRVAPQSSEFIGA

IC50 (NCI-H1975 [1]) [nM] | IC50 (A-431) [nM] | SMILES | IC50 (SW-620) [nM] | other results
6560 | 7090 | C=C(F)C(=O)Nc1cccc(Nc2nc(Nc3ccc(N4CCN(C(C)=O)CC4)c(F)c3)ncc2Cl)c1 | – | –
2500 | 1470 | C=C(Cl)C(=O)Nc1cccc(Oc2nc(Nc3ccc(N4CCN(C(C)=O)CC4)c(C(F)(F)F)c3)ncc2Cl)c1 | – | –
> 50000 | > 50000 | C=C(F)C(=O)Nc1cc(Nc2ncc(Cl)c(-c3cn(C)c4ccccc34)n2)ccc1N(C)C | – | –
16700 | 11000 | C=C(F)C(=O)Nc1cccc(Oc2nc(Nc3ccc(N4CCN(C)CC4)cc3OC)ncc2Cl)c1 | – | –
3120 | 4440 | C=C(Cl)C(=O)Nc1cccc(Nc2nc(Nc3ccc(N4CCN(C(C)=O)CC4)cc3OC)ncc2Cl)c1 | – | –
7030 | > 50000 | C=C(F)C(=O)Nc1cccc(Oc2nc(Nc3ccc(N4CCN(C(C)=O)CC4)cc3OC)ncc2Cl)c1 | – | –
20500 | 18100 | C=C(F)C(=O)Nc1cccc(Nc2nc(Nc3ccc(N4CCN(C(C)=O)CC4)nc3)ncc2Cl)c1 | – | –
9880 | 2860 | C=C(F)C(=O)Nc1cccc(Nc2nc(Nc3ccc(N4CCN(C(C)=O)CC4)c(C(F)(F)F)c3)ncc2Cl)c1 | – | –
3320 | 1890 | C=C(Cl)C(=O)Nc1cccc(Oc2nc(Nc3ccc(N4CCN(C(C)=O)CC4)cc3OC)ncc2Cl)c1 | – | –
13600 | 1060 | C=C(Cl)C(=O)Nc1cccc(Oc2nc(Nc3ccc(N4CCN(C)CC4)cc3OC)ncc2Cl)c1 | – | –
510 | 6010 | C=CC(=O)Nc1cccc(Nc2nc(Nc3ccc(N4CCN(C(C)=O)CC4)cc3OC)ncc2C(F)(F)F)c1 [ROCILETINIB] | 10500 | IC50 (COS-7): 7390 nM
4180 | 7130 | C=C(F)C(=O)Nc1cccc(Nc2nc(Nc3ccc(N4CCN(C(C)=O)CC4)c(Cl)c3)ncc2Cl)c1 | – | –
5570 | 10600 | C=C(C)C(=O)Nc1cccc(Nc2nc(Nc3ccc(N4CCN(C(C)=O)CC4)cc3)ncc2Cl)c1 | – | –
3820 | 2370 | C=C(C)C(=O)Nc1cccc(Nc2nc(Nc3ccc(N4CCN(C(C)=O)CC4)cc3OC)ncc2Cl)c1 | – | –
420 | 1140 | C=C(Cl)C(=O)Nc1cccc(Nc2nc(Nc3ccc(N4CCN(C(C)=O)CC4)c(F)c3)ncc2Cl)c1 | – | –
16900 | 2200 | C=C(Cl)C(=O)Nc1cc(Nc2ncc(Cl)c(-c3cn(C)c4ccccc34)n2)ccc1N(C)C | – | –
340 | 6500 | C=C(F)C(=O)Nc1cccc(Nc2nc(Nc3ccc(N4CCN(C(C)=O)CC4)cc3)ncc2Cl)c1 | 3610 | –
5790 | 6160 | C=C(C(=O)Nc1cccc(Nc2nc(Nc3ccc(N4CCN(C(C)=O)CC4)cc3)ncc2Cl)c1)c1ccccc1 | – | –
1820 | 1580 | C=C(F)C(=O)Nc1cccc(Nc2nc(Nc3ccc(N4CCN(C(C)=O)CC4)cc3OC)ncc2Cl)c1 | – | –

SMILES | IC50 (NCI-H1975 [1]) [nM] | IC50 (A-431) [nM] | IC50 (SW-620) [nM] | other results
C=C(Cl)C(=O)Nc1cccc(Oc2nc(Nc3ccc(N4CCN(C(C)=O)CC4)cc3)ncc2Cl)c1 | 1150 | 620 | 4600 | IC50 [2]: 130 nM; IC50 [3]: 13 nM
C=C(Cl)C(=O)Nc1cccc(Nc2nc(Nc3ccc(N4CCN(C(C)=O)CC4)nc3)ncc2Cl)c1 | 1640 | 870 | 2410 | IC50 [2]: 130 nM; IC50 [3]: 7.5 nM
C=C(Cl)C(=O)Nc1cccc(Nc2nc(Nc3ccc(N4CCN(C(C)=O)CC4)cc3Cl)ncc2Cl)c1 | 1720 | 1830 | 3020 | IC50 [2]: 301 nM; IC50 (COS-7): 14900 nM; IC50 [3]: 47 nM
C=C(Cl)C(=O)Nc1cccc(Nc2nc(Nc3ccc(N4CCN(C(C)=O)CC4)cc3)ncc2Cl)c1 | 750 | 3140 | 29200 | Activity (NCI-H1975 [4]): 19.15%; Activity (NCI-H1975 [5]): 98.52%; Activity (NCI-H1975 [6]): 1.94%; Activity (NCI-H1975 [7]): 19.43%; Activity (NCI-H1975 [8]): 24.27%; IC50 [2]: 70 nM; Activity (NCI-H1975 [9]): 58.39%; Activity (NCI-H1975 [10]): 54.06%; Activity (NCI-H1975 [11]): 22.18%; Activity (NCI-H1975 [12]): 63.96%; Activity (NCI-H1975 [13]): 1.89%; Activity (NCI-H1975 [14]): 98.81%; Activity (NCI-H1975 [15]): 21.67%; Activity (NCI-H1975 [16]): 1.95%; Activity (NCI-H1975 [17]): 16.89%; IC50 (COS-7): 10400 nM; Activity (NCI-H1975 [18]): 22.18%; Activity (NCI-H1975 [19]): 99.81%; IC50 [3]: 3.9 nM; Activity (NCI-H1975 [20]): 58.39%
C=C(Cl)C(=O)Nc1cccc(Nc2nc(Nc3ccc(N4CCN(C(C)=O)CC4)cc3OC)ncc2C(F)(F)F)c1 | 200 | 3680 | 3990 | IC50 [2]: 257 nM; IC50 [3]: 16 nM
C=C(Cl)C(=O)Nc1cccc(Nc2nc(Nc3ccc(N4CCN(C(C)=O)CC4)c(Cl)c3)ncc2Cl)c1 | 1020 | 140 | 2340 | IC50 [2]: 53 nM; IC50 (COS-7): 7220 nM; IC50 [3]: 3.2 nM
C=C(Cl)C(=O)Nc1cccc(Nc2nc(Nc3ccc(N4CCN(C(C)=O)CC4)c(C)c3)ncc2Cl)c1 | 180 | 1300 | 2070 | IC50 [2]: 51 nM; IC50 (COS-7): 5400 nM; IC50 [3]: 2.6 nM
